Test results reported in patent US20230355542A1, “DRUG-ELUTING DEVICE WITH GENETIC AND CHEMICAL THERAPEUTICS FOR TREATING OR PREVENTING VASCULAR ACCESS DYSFUNCTIONS” (priority 2022, published 2023).

Tested on: neointima formation in the venous arms of AV fistulae
Assay: systemic E2 in AV fistula model with experimentally induced chronic kidney disease
Type: in vivo
Conditions: systemic E2 100 ug/day, i.p; animals with experimentally induced CKD
Experimental: Systemic administration of estradiol, i.e., E2 (Molecular Weight: 272.38 Formula: […] Dissolves in absolute Ethanol) requires weekly therapeutic injections ([Study 1:10 weeks old+OVX (ovariectomy)+1 week+NX (nephrectomy)+4 weeks+AVF+4 weeks (with systemic E2 [100 ug/day, i.p])+4 weeks]) that are not applicable in real-life clinical settings. […] The nanoparticle membrane disclosed herein may locally deliver nanoparticles for the carotid artery ligation model and potentially for the AV Fistula injury site, replacing weekly injections, without the requirement for elevated systemic levels of E2. Nanoparticles may be successfully delivered and retained in layers of carotid artery tissue on a mouse model with significant enhancement.

C[C@]12CC[C@@H]3c4ccc(O)cc4CC[C@H]3[C@@H]1CC[C@@H]2O [estrogen, estradiol]
effect on neointima formation: inhibits neointima formation
